The text below walks through data of US10272095B2 (GlaxoSmithKline Intellectual Property Development Limited, priority 2015, dated 2019).

Where a name gives a salt, the structure may show the parent alone.

The subject of one assay is NQO1 specific enzyme activity in BEAS-2B cells. Briefly: BEAS-2B NQO1 MTT assay. In kind it is cell-based. As to conditions: Homo sapiens, BEAS-2B, 48 h, NQO1 specific enzyme activity induction in BEAS-2B cells, 48 hours; read-out: EC50. From the text:
NAD(P)H:quinone oxidoreductase 1 (NQO1), also called DT diaphorase, is a homodimeric FAD-containing enzyme that catalyzes obligatory NAD(P)H-dependent two-electron reductions of quinones and protects cells against the toxic and neoplastic effects of free radicals and reactive oxygen species arising from one-electron reductions. The transcription of NQO1 is finely regulated by NRF2, and thus NQO1 activity is a good marker for NRF2 activation. On day one, frozen BEAS-2B cells (ATCC) are thawed in a water bath, counted, and re-suspended at a concentration of 250,000 cells/mL. Fifty microliters of cells are plated in 384 well black clear-bottomed plates. Plates are incubated at 37° C., 5% CO2 overnight. On day two, plates are centrifuged and 50 nL of compound or controls are added to the cells. Plates are then incubated at 37° C., 5% CO2 for 48 hours. On day four, medium is aspirated from the plate and crude cell lysates are made by adding 13 uL of 1× Cell Signaling Technologies lysis buffer with 1 Complete, Mini, EDTA-free Protease Inhibitor Tablet (Roche) for each 10 mL of lysis buffer. After lysis plates are incubated for 20 minutes at room temperature. Two microliters of lysate are removed for use in Cell Titer Glo assay (Promega) and MTT cocktail is prepared (Prochaska et. al. 1998) for measurement of NQO1 activity. Fifty microliters of MTT cocktail is added to each well, plate is centrifuged, and analyzed on an Envision plate reader (Perkin Elmer) using Absorbance 570 nm label for 30 minutes. Product formation is measured kinetically and the pEC50 of NQO1 specific activity induction is calculated by plotting the change in absorbance (Delta OD/min) versus the log of compound concentration followed by 3-parameter fitting.
EC50s<1 nM (+++++), EC50s 10 nM-1 nM (++++), EC50s 10-100 nM (+++), EC50s 100 nM-1 uM (++), EC50s 1 uM-10 uM (+), EC50s>10 uM (−), or were not determined (ND).
For orientation: Formazan colour is commonly taken as a measure of viable cells.
With `Cc1c(C(CC(=O)O)c2ccc3c(c2)C2C(CCN2C(=O)CC(C)(C)C)C3)ccc2c1nnn2C` (stereo not shown) [Example 13, 3-(1,4-Dimethyl-1H-1,2,3-benzotriazol-5-yl)-3-[1-(3,3-dimethylbutanoyl)-1H,2H,3H,3aH,4H,8bH-indeno[1,2-b]pyrrol-7-yl]propanoic Acid], the EC50 (as a rule, the midpoint of the concentration-response curve) lay within 1000 to 10000 nM.
Take `CCCCN(C)C(=O)N1CCC2Cc3ccc(C(CC(=O)O)c4ccc5c(nnn5C)c4C)cc3C21` (stereo not shown) [Example 14, 3-{1-[Butyl(methyl)carbamoyl]-1H,2H,3H,3aH,4H,8bH-indeno[1,2-b]pyrrol-7-yl}-3-(1,4-dimethyl-1H-1,2,3-benzotriazol-5-yl)propanoic Acid]: the EC50 lay in the range of 1000 to 10000 nM.
Take `COc1cc(C(CC(=O)O)c2ccc3c(c2)C2C(CCN2C(=O)OC(C)(C)C)C3)cc2nnn(C)c12` (stereo not shown) [Example 15, 3-{1-[(tert-Butoxy)carbonyl]-1H,2H,3H,3aH,4H,8bH-indeno[1,2-b]pyrrol-7-yl}-3-(7-methoxy-1-methyl-1H-1,2,3-benzotriazol-5-yl)propanoic Acid]: the EC50 was 100 to 1000 nM.
`CCn1nnc2c(C)c(C(CC(=O)O)c3ccc4c(c3)C3C(CCN3C(=O)OC(C)(C)C)C4)ccc21` (stereo not shown) [Example 16, 3-(1-(tert-Butoxycarbonyl)-1,2,3,3a,4,8b-hexahydroindeno[1,2-b]pyrrol-7-yl)-3-(1-ethyl-4-methyl-1H-benzo[d][1,2,3]triazol-5-yl)propanoic Acid]: the EC50 lay within 100 to 1000 nM.
In the case of `CCn1cc(CCC(CC(=O)O)c2ccc3c(c2)C2C(CCN2C(=O)OC(C)(C)C)C3)nn1` (stereo not shown) [Example 17, 3-(1-(tert-Butoxycarbonyl)-1,2,3,3a,4,8b-hexahydroindeno[1,2-b]pyrrol-7-yl)-5-(1-ethyl-1H-1,2,3-triazol-4-yl)pentanoic Acid], the EC50 lay within 1000 to 10000 nM.
As for `COc1cc(C(CC(=O)O)c2ccc3c(c2)C2C(CCN2C(=O)OC(C)(C)C)C3)c(C)c2nnn(C)c12` (stereo not shown) [Example 18, 3-(1-(tert-Butoxycarbonyl)-1,2,3,3a,4,8b-hexahydroindeno[1,2-b]pyrrol-7-yl)-3-(7-methoxy-1,4-dimethyl-1H-benzo[d][1,2,3]triazol-5-yl)propanoic Acid], the EC50 lay in the range of 10 to 100 nM.
In the case of `Cc1c(C(CC(=O)O)c2ccc3c(c2)C2C(CC3)CC(=O)N2CC2CCCCC2)ccc2c1nnn2C` (stereo not shown) [Example 19, 3-(1-(Cyclohexylmethyl)-2-oxo-2,3,3a,4,5,9b-hexahydro-1H-benzo[g]indol-8-yl)-3-(1,4-dimethyl-1H-benzo[d][1,2,3]triazol-5-yl)propanoic Acid], the EC50 was 100 to 1000 nM.
Regarding `Cc1c(C(CC(=O)O)c2ccc3c(c2)C2C(C3)OC(=O)N2CC2CCCCC2)ccc2c1nnn2C` (stereo not shown) [Example 20, 3-(3-(Cyclohexylmethyl)-2-oxo-3,3a,8,8a-tetrahydro-2H-indeno[1,2-d]oxazol-5-yl)-3-(1,4-dimethyl-1H-benzo[d][1,2,3]triazol-5-yl)propanoic Acid], the EC50 is 100 to 1000 nM.
Turning to `Cc1c(C(CC(=O)O)c2ccc3c(c2)C(N2Cc4cc(Cl)ccc4OC(C)(C)C2)CC3)ccc2c1nnn2C` (stereo not shown) [Example 21, 3-(3-(7-Chloro-2,2-dimethyl-2,3-dihydrobenzo[f][1,4]oxazepin-4(5H)-yl)-2,3-dihydro-1H-inden-5-yl)-3-(1,4-dimethyl-1H-benzo[d][1,2,3]triazol-5-yl)propanoic Acid, Formic Acid Salt], the EC50 was 1 to 10 nM.
The same measure, in the same setting: under `Cc1ccc2c(c1)CN(C1CCc3ccc(C(CC(=O)O)c4ccc5c(nnn5C)c4C)cc31)CC(C)(C)O2` (stereo not shown) [Example 22, 3-(1,4-Dimethyl-1H-benzo[d][1,2,3]triazol-5-yl)-3-(3-(2,2,7-trimethyl-2,3-dihydrobenzo[f][1,4]oxazepin-4(5H)-yl)-2,3-dihydro-1H-inden-5-yl)propanoic Acid] stands 1 to 10 nM; under `COc1ccc2c(c1)CN(C1CCc3ccc(C(CC(=O)O)c4ccc5c(nnn5C)c4C)cc31)CC(C)(C)O2` (stereo not shown) [Example 23, 3-(1,4-Dimethyl-1H-benzo[d][1,2,3]triazol-5-yl)-3-(3-(7-methoxy-2,2-dimethyl-2,3-dihydrobenzo[f][1,4]oxazepin-4(5H)-yl)-2,3-dihydro-1H-inden-5-yl)propanoic Acid], 1 to 10 nM; under `Cc1ccc2c(c1)OC(C)(C)CN(C1CCc3ccc(C(CC(=O)O)c4ccc5c(nnn5C)c4C)cc31)C2` (stereo not shown) [Example 24, 3-(1,4-Dimethyl-1H-benzo[d][1,2,3]triazol-5-yl)-3-(3-(2,2,8-trimethyl-2,3-dihydrobenzo[f][1,4]oxazepin-4(5H)-yl)-2,3-dihydro-1H-inden-5-yl)propanoic Acid, Formic Acid Salt], 1 to 10 nM.
Regarding `Cc1c(C(CC(=O)O)c2ccc3c(c2)C(N2Cc4ccc(F)cc4OC(C)(C)C2)CC3)ccc2c1nnn2C` (stereo not shown) [Example 25, 3-(1,4-Dimethyl-1H-benzo[d][1,2,3]triazol-5-yl)-3-(3-(8-fluoro-2,2-dimethyl-2,3-dihydrobenzo[f][1,4]oxazepin-4(5H)-yl)-2,3-dihydro-1H-inden-5-yl)propanoic Acid], the EC50 is 1 to 10 nM.
Take `Cc1cc(F)ccc1C(c1ccc2c(c1)C(N1Cc3ccccc3OC(C)(C)C1)CC2)C(C)(C)C(=O)O` (stereo not shown) [Example 26, 3-(3-(2,2-Dimethyl-2,3-dihydrobenzo[f][1,4]oxazepin-4(5H)-yl)-2,3-dihydro-1H-inden-5-yl)-3-(4-fluoro-2-methylphenyl)-2,2-dimethylpropanoic Acid]: the EC50 is 10 to 100 nM.
`Cc1c(C(c2ccc3c(c2)C(N2Cc4ccccc4OC(C)(C)C2)CC3)C(C)(C)C(=O)O)ccc2c1nnn2C` (stereo not shown) [Example 27, 3-(1,4-Dimethyl-1H-benzo[d][1,2,3]triazol-5-yl)-3-(3-(2,2-dimethyl-2,3-dihydrobenzo[f][1,4]oxazepin-4(5H)-yl)-2,3-dihydro-1H-inden-5-yl)-2,2-dimethylpropanoic Acid, 2 Formic Acid Salt]: the EC50 was under 1 nM.
Same read-out and setting: under `Cc1c(C(CC(=O)O)c2ccc3c(c2)C(N2Cc4cc(C#N)ccc4OC(C)(C)C2)CC3)ccc2c1nnn2C` (stereo not shown) [Example 28, 3-(3-(7-Cyano-2,2-dimethyl-2,3-dihydrobenzo[f][1,4]oxazepin-4(5H)-yl)-2,3-dihydro-1H-inden-5-yl)-3-(1,4-dimethyl-1H-benzo[d][1,2,3]triazol-5-yl)propanoic Acid, Formic Acid Salt] stands under 1 nM.
As for `COc1cc(C(CC(=O)O)c2ccc3c(c2)C(N2Cc4ccccc4OC(C)(C)C2)CC3)c(C)c2nnn(C)c12` (stereo not shown) [Example 29, 3-(3-(2,2-Dimethyl-2,3-dihydrobenzo[f][1,4]oxazepin-4(5H)-yl)-2,3-dihydro-1H-inden-5-yl)-3-(7-methoxy-1,4-dimethyl-1H-benzo[d][1,2,3]triazol-5-yl)propanoic Acid, Formic Acid Salt], the half-maximal effective concentration (EC50) is under 1 nM.
In the case of `CC[C@@H]1CN(C2CCc3ccc(C(c4ccc5c(nnn5C)c4C)C(C)(C)C(=O)O)cc32)Cc2ccccc2O1` (stereo partly drawn) [Example 30, 3-(1,4-Dimethyl-1H-benzo[d][1,2,3]triazol-5-yl)-3-(3-((R)-2-ethyl-2,3-dihydrobenzo[f][1,4]oxazepin-4(5H)-yl)-2,3-dihydro-1H-inden-5-yl)-2,2-dimethylpropanoic Acid, Formic Acid Salt], the EC50 lay in the range of 1 to 10 nM.
The same measure, in the same setting: under `Cc1ccc2c(c1)CN(C1CCc3ccc(C(c4ccc5c(nnn5C)c4C)C(C)(C)C(=O)O)cc31)C[C@@H](C)O2` (stereo partly drawn) [Example 31, 3-(1,4-Dimethyl-1H-benzo[d][1,2,3]triazol-5-yl)-3-(3-((R)-2,7-dimethyl-2,3-dihydrobenzo[f][1,4]oxazepin-4(5H)-yl)-2,3-dihydro-1H-inden-5-yl)-2,2-dimethylpropanoic Acid, Formic Acid Salt] stands 1 to 10 nM; under `Cc1c(C(c2ccc3c(c2)C(N2Cc4ccccc4O[C@H](C)C2)CC3)C(C)(C)C(=O)O)ccc2c1nnn2C` (stereo partly drawn) [Example 32, 3-(1,4-Dimethyl-1H-benzo[d][1,2,3]triazol-5-yl)-2,2-dimethyl-3-(3-((R)-2-methyl-2,3-dihydrobenzo[f][1,4]oxazepin-4(5H)-yl)-2,3-dihydro-1H-inden-5-yl)propanoic Acid, Formic Acid Salt], 1 to 10 nM.
Consider `Cc1c(C(c2ccc3c(c2)C(N2Cc4cnccc4OC(C)(C)C2)CC3)C(C)(C)C(=O)O)ccc2c1nnn2C` (stereo not shown) [Example 33, 3-(1,4-Dimethyl-1H-benzo[d][1,2,3]triazol-5-yl)-3-(3-(2,2-dimethyl-2,3-dihydropyrido[3,4-f][1,4]oxazepin-4(5H)-yl)-2,3-dihydro-1H-inden-5-yl)-2,2-dimethylpropanoic Acid, Trifluoroacetic Acid Salt], for which the EC50 fell in the range of 1 to 10 nM.

The assay is the same for the next values; noted with them: Homo sapiens, BEAS-2B, NQO1 specific enzyme activity in BEAS-2B cells; in some determinations; read-out: EC50 values in some determinations.
`Cc1c(C(c2ccc3c(c2)C(N2Cc4ccccc4OC(C)(C)C2)CC3)C(C)(C)C(=O)O)ccc2c1nnn2C` (stereo not shown) [Example 27, 3-(1,4-Dimethyl-1H-benzo[d][1,2,3]triazol-5-yl)-3-(3-(2,2-dimethyl-2,3-dihydrobenzo[f][1,4]oxazepin-4(5H)-yl)-2,3-dihydro-1H-inden-5-yl)-2,2-dimethylpropanoic Acid, 2 Formic Acid Salt]: the EC50 was under 0.17 nM.
